pIC50: −log10 of the molar value.
Experiments:
[1] = tested on: CAL-85-1; assay: cells; assay type: functional, cell-based; conditions: Homo sapiens;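 note: growth inhibition of human CAL-85-1 cells, read out with a cell viability assay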
Description: SANGER: Inhibition of human CAL-85-1 cell growth in a cell viability assay.

[2] = tested on: CAKI-1; assay: cells; assay type: functional, cell-based; conditions: Homo sapiens;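 note: growth inhibition of CAKI-1 cells, measured by a cell viability assay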
Description: SANGER: Inhibition of human CAKI-1 cell growth in a cell viability assay.

[3] = tested on: SK-MES-1; assay: cells; assay type: functional, cell-based; conditions: Homo sapiens;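 note: growth inhibition of human SK-MES-1 cells, read out with a cell viability assay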
Description: SANGER: Inhibition of human SK-MES-1 cell growth in a cell viability assay.

[4] = tested on: MKN-45; assay: cells; assay type: functional, cell-based; conditions: Homo sapiens;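 note: growth inhibition of human MKN-45 cells, measured with a cell viability assay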
Description: SANGER: Inhibition of human MKN45 cell growth in a cell viability assay.

[5] = tested on: DK-MG; assay: cells; assay type: functional, cell-based; conditions: Homo sapiens;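 note: growth inhibition of DK-MG cells, read out with a cell viability assay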
Description: SANGER: Inhibition of human DK-MG cell growth in a cell viability assay.

[6] = tested on: M14; assay: cells; assay type: functional, cell-based; conditions: Homo sapiens;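 note: growth inhibition of M14 cells, read out with a cell viability assay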
Description: SANGER: Inhibition of human M14 cell growth in a cell viability assay.

[7] = tested on: NALM-6; assay: cells; assay type: functional, cell-based; conditions: Homo sapiens;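 note: growth inhibition of NALM-6 cells, read out with a cell viability assay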
Description: SANGER: Inhibition of human NALM-6 cell growth in a cell viability assay.

[8] = tested on: MIA PaCa-2; assay: cells; assay type: functional, cell-based; conditions: Homo sapiens;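 note: growth inhibition of MIA PaCa-2 cells, read out with a cell viability assay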
Description: SANGER: Inhibition of human MIA-PaCa-2 cell growth in a cell viability assay.

[9] = tested on: MDA-MB-231; assay: cells; assay type: functional, cell-based; conditions: Homo sapiens
Description: SANGER: Inhibition of human MDA-MB-231 cell growth in a cell viability assay.

[10] = tested on: NCI-H522; assay: cells; assay type: functional, cell-based; conditions: Homo sapiens;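 note: cell viability assay measuring growth inhibition of human NCI-H522 cells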
Description: SANGER: Inhibition of human NCI-H522 cell growth in a cell viability assay.

[11] = tested on: IMR-5; assay: cells; assay type: functional, cell-based; conditions: Homo sapiens;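 note: growth inhibition of human IMR-5 cells, read out with a cell viability assay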
Description: SANGER: Inhibition of human IMR-5 cell growth in a cell viability assay.

[12] = tested on: AN3-CA; assay: cells; assay type: functional, cell-based; conditions: Homo sapiens;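 note: growth inhibition of human AN3-CA cells measured by a cell viability assay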
Description: SANGER: Inhibition of human AN3-CA cell growth in a cell viability assay.

[13] = tested on: HuCCT-1; assay: cells; assay type: functional, cell-based, HuCCT1; conditions: Homo sapiens;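 note: growth inhibition of HuCCT-1 cells, read out by a cell viability assay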
Description: SANGER: Inhibition of human HuCCT1 cell growth in a cell viability assay.

[14] = tested on: SW1573; assay: cells; assay type: functional, cell-based; conditions: Homo sapiens;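 note: growth inhibition of SW1573 cells, read out with a cell viability assay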
Description: SANGER: Inhibition of human SW1573 cell growth in a cell viability assay.

[15] = tested on: C32; assay: cells; assay type: functional, cell-based; conditions: Homo sapiens;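 note: cell viability assay, with IC50 reflecting inhibition of C32 cell growth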
Description: SANGER: Inhibition of human C32 cell growth in a cell viability assay.

[16] = tested on: MDA-MB-157; assay: cells; assay type: functional, cell-based; conditions: Homo sapiens
Description: SANGER: Inhibition of human MDA-MB-157 cell growth in a cell viability assay.

[17] = tested on: OVCAR-3; assay: cells; assay type: functional, cell-based; conditions: Homo sapiens;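 note: growth inhibition of human OVCAR-3 cells, determined by a cell viability assay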
Description: SANGER: Inhibition of human OVCAR-3 cell growth in a cell viability assay.

[18] = tested on: NCI-H441; assay: cells; assay type: functional, cell-based; conditions: Homo sapiens;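 note: growth inhibition of NCI-H441 cells, read out with a cell viability assay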
Description: SANGER: Inhibition of human NCI-H441 cell growth in a cell viability assay.

[19] = tested on: CAL-148; assay: cells; assay type: functional, cell-based; conditions: Homo sapiens
Description: SANGER: Inhibition of human CAL-148 cell growth in a cell viability assay.

[20] = tested on: HCC70; assay: cells; assay type: functional, cell-based; conditions: Homo sapiens;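 note: cell viability assay measuring how strongly the compound suppresses proliferation of HCC70 cells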
Description: SANGER: Inhibition of human HCC70 cell growth in a cell viability assay.

[21] = tested on: KYSE-520 cell line; assay: cells; assay type: functional, cell-based; conditions: Homo sapiens;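 note: growth inhibition of human KYSE-520 cells, read out with a viability assay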
Description: SANGER: Inhibition of human KYSE-520 cell growth in a cell viability assay.

[22] = tested on: SK-LU-1; assay: cells; assay type: functional, cell-based; conditions: Homo sapiens;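 note: cell viability assay measuring growth inhibition of human SK-LU-1 cells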
Description: SANGER: Inhibition of human SK-LU-1 cell growth in a cell viability assay.

[23] = tested on: S-117; assay: cells; assay type: functional, cell-based; conditions: Homo sapiens
Description: SANGER: Inhibition of human S-117 cell growth in a cell viability assay.

[24] = tested on: ASPC1; assay: cells; assay type: functional, cell-based; conditions: Homo sapiens;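 note: growth inhibition of AsPC-1 cells, read out with a cell viability assay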
Description: SANGER: Inhibition of human AsPC-1 cell growth in a cell viability assay.

[25] = tested on: CHP-212; assay: cells; assay type: functional, cell-based; conditions: Homo sapiens
Description: SANGER: Inhibition of human CHP-212 cell growth in a cell viability assay.

[26] = tested on: NCI-H1417; assay: cells; assay type: functional, cell-based; conditions: Homo sapiens;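 note: human NCI-H1417 cells, growth inhibition determined with a cell viability readout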
Description: SANGER: Inhibition of human NCI-H1417 cell growth in a cell viability assay.

[27] = tested on: SAOS-2; assay: cells; assay type: functional, cell-based; conditions: Homo sapiens;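 note: growth inhibition of human Saos-2 cells determined by a cell viability assay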
Description: SANGER: Inhibition of human Saos-2 cell growth in a cell viability assay.

[28] = tested on: LB647-SCLC; assay: cells; assay type: functional, cell-based; conditions: Homo sapiens;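 note: cell growth inhibition, read out by a viability assay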
Description: SANGER: Inhibition of human LB647-SCLC cell growth in a cell viability assay.

[29] = tested on: MG-63; assay: cells; assay type: functional, cell-based; conditions: Homo sapiens;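 note: growth inhibition of human MG-63 cells, read out with a cell viability assay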
Description: SANGER: Inhibition of human MG-63 cell growth in a cell viability assay.

[30] = tested on: MCF7; assay: cells; assay type: functional, cell-based; conditions: Homo sapiens;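 note: growth inhibition of human MCF7 cells, read out with a cell viability assay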
Description: SANGER: Inhibition of human MCF7 cell growth in a cell viability assay.

[31] = tested on: A204; assay: cells; assay type: functional, cell-based; conditions: Homo sapiens;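 note: growth inhibition of human A204 cells, read out with a cell viability assay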
Description: SANGER: Inhibition of human A204 cell growth in a cell viability assay.

[32] = tested on: OVCAR-8; assay: cells; assay type: functional, cell-based; conditions: Homo sapiens;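 note: growth inhibition of human OVCAR-8 cells, read out by a cell viability assay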
Description: SANGER: Inhibition of human OVCAR-8 cell growth in a cell viability assay.

[33] = tested on: UO-31; assay: cells; assay type: functional, cell-based; conditions: Homo sapiens
Description: SANGER: Inhibition of human U031 cell growth in a cell viability assay.

[34] = tested on: CMK; assay: cells; assay type: functional, cell-based; conditions: Homo sapiens;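 note: growth inhibition of CMK cells, read out as cell viability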
Description: SANGER: Inhibition of human CMK cell growth in a cell viability assay.

[35] = tested on: CESS; assay: SANGER: Inhibition of human CESS cell growth in a cell viability assay.; assay type: functional, cell-based
[36] = tested on: COLO-741; assay: cells; assay type: functional, cell-based; conditions: Homo sapiens
Description: SANGER: Inhibition of human COLO-741 cell growth in a cell viability assay.

[37] = tested on: JIYOYE; assay: cells; assay type: functional, cell-based; conditions: Homo sapiens
Description: SANGER: Inhibition of human JiyoyeP-2003 cell growth in a cell viability assay.

[38] = tested on: CAMA-1; assay: cells; assay type: functional, cell-based; conditions: Homo sapiens;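 note: growth inhibition of CAMA-1 cells, read out with a cell viability assay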
Description: SANGER: Inhibition of human CAMA-1 cell growth in a cell viability assay.

[39] = tested on: KP-N-YN; assay: cells; assay type: functional, cell-based; conditions: Homo sapiens;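 note: growth inhibition of KP-N-YN cells, read out with a cell viability assay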
Description: SANGER: Inhibition of human KP-N-YN cell growth in a cell viability assay.

[40] = tested on: SW756; assay: cells; assay type: functional, cell-based; conditions: Homo sapiens;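 note: growth inhibition of human SW756 cells, read out with a cell viability assay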
Description: SANGER: Inhibition of human SW756 cell growth in a cell viability assay.

[41] = tested on: KYSE-70 cell line; assay: cells; assay type: functional, cell-based; conditions: Homo sapiens;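 note: cell viability assay read-out, with IC50 expressing suppression of KYSE-70 cell growth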
Description: SANGER: Inhibition of human KYSE-70 cell growth in a cell viability assay.

[42] = tested on: P12-Ichikawa; assay: cells; assay type: functional, cell-based; conditions: Homo sapiens
[43] = tested on: NCI-H810; assay: cells; assay type: functional, cell-based; conditions: Homo sapiens;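 note: IC50 reflects inhibition of cancer cell line growth, read out with a cell viability assay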
Description: SANGER: Inhibition of human NCI-H810 cell growth in a cell viability assay.

[44] = tested on: HCC38; assay: cells; assay type: functional, cell-based; conditions: Homo sapiens;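 note: cell viability assay on the human HCC38 cell line, with IC50 marking the concentration that inhibits cell growth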
Description: SANGER: Inhibition of human HCC38 cell growth in a cell viability assay.

[45] = tested on: G-402; assay: cells; assay type: functional, cell-based; conditions: Homo sapiens
Description: SANGER: Inhibition of human G-402 cell growth in a cell viability assay.

[46] = tested on: PC-3; assay: cells; assay type: functional, cell-based; conditions: Homo sapiens;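 note: cell viability assay measuring growth inhibition of PC-3 cells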
Description: SANGER: Inhibition of human PC-3 cell growth in a cell viability assay.

[47] = tested on: MC-IXC; assay: cells; assay type: functional, cell-based; conditions: Homo sapiens;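 note: growth inhibition of MC-IXC cells, read out with a cell viability assay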
Description: SANGER: Inhibition of human MC-IXC cell growth in a cell viability assay.

[48] = tested on: HEC-1; assay: cells; assay type: functional, cell-based; conditions: Homo sapiens;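 note: growth inhibition of the cell line, read out with a cell viability assay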
Description: SANGER: Inhibition of human HEC-1 cell growth in a cell viability assay.

[49] = tested on: TCC-SUP; assay: cells; assay type: functional, cell-based; conditions: Homo sapiens;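 note: growth inhibition of TCC-SUP cells, read out with a cell viability assay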
Description: SANGER: Inhibition of human TCCSUP cell growth in a cell viability assay.

[50] = tested on: LCLC-103H cell line; assay: cells; assay type: functional, cell-based; conditions: Homo sapiens
Description: SANGER: Inhibition of human LCLC-103H cell growth in a cell viability assay.

[51] = tested on: OAW-28; assay: cells; assay type: functional, cell-based; conditions: Homo sapiens;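 note: growth inhibition of OAW-28 cells, read out with a cell viability assay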
Description: SANGER: Inhibition of human OAW-28 cell growth in a cell viability assay.

[52] = tested on: RVH-421; assay: cells; assay type: functional, cell-based; conditions: Homo sapiens
Description: SANGER: Inhibition of human RVH-421 cell growth in a cell viability assay.

[53] = tested on: BL-70; assay: SANGER: Inhibition of human BL-70 cell growth in a cell viability assay.; assay type: functional, cell-based
[54] = tested on: Daoy; assay: cells; assay type: functional, cell-based; conditions: Homo sapiens;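 note: daoy cell growth inhibition, read out as cell viability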
Description: SANGER: Inhibition of human Daoy cell growth in a cell viability assay.

[55] = tested on: NCI-H2122; assay: cells; assay type: functional, cell-based; conditions: Homo sapiens;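 note: growth inhibition of the cells, read out with a cell viability assay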
Description: SANGER: Inhibition of human NCI-H2122 cell growth in a cell viability assay.

[56] = tested on: MDA-MB-175-VII; assay: cells; assay type: functional, cell-based; conditions: Homo sapiens
[57] = tested on: L-540; assay: cells; assay type: functional, cell-based; conditions: Homo sapiens;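 note: growth inhibition of the human L-540 cell line, read out with a viability assay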
Description: SANGER: Inhibition of human L-540 cell growth in a cell viability assay.

[58] = tested on: NCI-H64; assay: cells; assay type: functional, cell-based; conditions: Homo sapiens;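 note: growth inhibition of NCI-H64 cells, read out with a cell viability assay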
Description: SANGER: Inhibition of human NCI-H64 cell growth in a cell viability assay.

[59] = tested on: PFSK-1; assay: cells; assay type: functional, cell-based; conditions: Homo sapiens;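 note: cell viability assay measuring how strongly compounds suppress growth of human PFSK-1 cells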
Description: SANGER: Inhibition of human PFSK-1 cell growth in a cell viability assay.

[60] = tested on: LP-1; assay: cells; assay type: functional, cell-based; conditions: Homo sapiens;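 note: growth inhibition of human LP-1 cells, with the read-out taken from a cell viability assay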
Description: SANGER: Inhibition of human LP-1 cell growth in a cell viability assay.

[61] = tested on: NCI-H1522; assay: cells; assay type: functional, cell-based; conditions: Homo sapiens;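 note: growth inhibition of NCI-H1522 cells, read out with a cell viability assay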
Description: SANGER: Inhibition of human NCI-H1522 cell growth in a cell viability assay.

[62] = tested on: RT-112; assay: cells; assay type: functional, cell-based; conditions: Homo sapiens
Description: SANGER: Inhibition of human RT-112 cell growth in a cell viability assay.

[63] = tested on: UACC-62; assay: cells; assay type: functional, cell-based; conditions: Homo sapiens;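 note: growth inhibition of human UACC-62 cells, read out by a cell viability assay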
Description: SANGER: Inhibition of human UACC-62 cell growth in a cell viability assay.

[64] = tested on: RPMI-2650; assay: cells; assay type: functional, cell-based; conditions: Homo sapiens
Description: SANGER: Inhibition of human RPMI-2650 cell growth in a cell viability assay.

Measured: pIC50

CC(O)(CS(=O)(=O)c1ccc(F)cc1)C(=O)Nc1ccc(C#N)c(C(F)(F)F)c1 (centres undefined) [BICALUTAMIDE]
< 5.99: all assays above
